From patent publication US20250326744A1, “PIPERAZINE DERIVATIVE OR SALT THEREOF, AND PHARMACEUTICAL COMPOSITION” (priority 2022, published 2025)
Counter-ions that a name gives are not always drawn.

Columns and labels:
[1] = test system: mexB (PA) strain; test: Combinational effect with antibacterial agent against Pseudomonas aeruginosa (Test Examples 2 and 4): mexB (PA) strain with LVFX, TC or AZT at 1/4 MIC, EC99; type: cell-based; settings: for EC99, mexB (PA), AZT / EC99, mexB (PA), LVFX: Table 52, Test Example 2, 16 to 20 hours culture, OD595; for EC99, mexB (PA), AZT / EC99, combinational effect with AZT, mexB (PA): combined with AZT at 1/4 MIC; for EC99, mexB (PA), LVFX / EC99, combinational effect with LVFX, mexB (PA): combined with LVFX at 1/4 MIC; for EC99, combinational effect with AZT, mexB (PA) / EC99, combinational effect with LVFX, mexB (PA) / EC99, combinational effect with TC, mexB (PA): mexB (PA) strain, Test Example 4; for EC99, combinational effect with TC, mexB (PA): combined with TC at 1/4 MIC
Summary of the method: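 EC99 denotes the minimum test-compound concentration (range 0–800 μM) that suppresses ≥99% of growth, measured by OD595, when combined with ¼ MIC levofloxacin (LVFX), tetracycline or aztreonam. The efflux-pump mutant mexB (PA), expressing mainly MexAB-OprM, was inoculated at 10^4–5 CFU/well in CAMHB for 16–20 h.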

[2] = test system: mexY (EC) strain; test: Efflux ability inhibition effect on drug efflux pump MexY (Test Examples 1 and 3): proliferation (OD595) of mexY (EC) strain with EM or LVFX at 1/4 MIC, EC75; type: cell-based, Escherichia coli; settings: for EC75, mexY (EC) strain, EM: combined with EM at 1/4 MIC; for EC75, mexY (EC) strain, LVFX: combined with LVFX at 1/4 MIC
Experimental: The efflux ability inhibition effect of the test compound on the drug efflux pump was evaluated using the bacterial proliferative ability in the presence of EM or LVFX as an index.
EM is a macrolide antibacterial agent and is a drug that is discharged outside the bacteria by MexB and MexY LVFX is a quinolone antibacterial agent and is a drug that is discharged outside the bacteria by MexB and MexY In a case where the test compound has an efflux ability inhibitory ability against the drug efflux pump, the proliferation of bacteria is suppressed by the combined use of EM or LVFX and the test compound, as compared with the case where EM or LVFX is used alone.
A mutant strain (hereinafter, referred to as an “mexB (EC) strain”) obtained by transferring the genes of the main multidrug efflux system MexAB-OprM of Pseudomonas aeruginosa described in Nature, 2013, Vol. 500, pp. 102 to 106 as a plasmid into Escherichia coli strains in which the acrB and tolC genes of the multidrug efflux system AcrAB-TolC were deleted as described in Journal of Infection and Chemotherapy 2008, Vol. 14, pp. 23 to 29, and a gene transfer strain (hereinafter, referred to as an “mexY (EC) strain”) of another main multidrug efflux system MexXY-OprM of Pseudomonas aeruginosa were used for the evaluation of test compounds.
In the mexB (EC) strain, an expression level of MexB of the drug efflux pump is accelerated, and in the mexY (EC) strain, an expression level of MexY of the drug efflux pump is accelerated.
For culturing each Escherichia coli strain, a 96-well plate (amount of culture medium per well: 100 μL) was used and Luria-Bertani broth (LB) culture medium was used. The inoculation amount of the bacteria was set to 10^4 to 5 CFU/well.
The mexB (EC) strain and the mexY (EC) strain were cultured for 16 to 20 hours in a culture medium to which EM or LVFX and test compounds at various concentrations (0 to 800 μM) were added, and the proliferation of the bacterial strains was evaluated by optical turbidity at 595 nm (OD595). The concentration of the antibacterial agents (EM and LVFX) in the culture medium were each set to ¼ of the minimum inhibitory concentration (MIC) (hereinafter, referred to as ¼ MIC) of the single antibacterial agent.
The proliferation of bacteria in a case where the antibacterial agent was added at the concentration of ¼ MIC in a case where the test compound was not added was measured, and compared with the proliferation of bacteria in a case where the test compound was contained, and the lowest concentration of the test compound at which the proliferation was inhibited by 75% or more was defined as the drug efflux pump inhibitory ability of the test compound as 75% inhibitory effect concentration (EC75).
The drug efflux pump inhibitory ability of each test compound in a case of being used in combination with the antibacterial agent against the mexB (EC) strain and the mexY (EC) strain was evaluated as follows according to the value of EC75. • S: EC75≤[…] • A: 12.5 μM<EC75≤25 μM • B: 25 μM<EC75≤100 μM • C: […]
In the same manner as in Test Example 1, the efflux ability inhibition effect of the test compound on the drug efflux pump was evaluated using the bacterial proliferation ability in the presence of EM or LVFX as an index.

[3] = test system: S-3769 strain; test: Combinational effect with antibacterial agent against Pseudomonas aeruginosa (Test Examples 2 and 4): S-3769 strain with AMK or GM at 1/4 MIC, EC99; type: cell-based; settings: S-3769 strain, Test Example 4; for EC99, combinational effect with AMK, S-3769 strain: combined with AMK at 1/4 MIC; for EC99, combinational effect with GM, S-3769 strain: combined with GM at 1/4 MIC
Summary of the method: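 EC99, the lowest test-compound concentration inhibiting growth by ≥99% (OD595), was measured with aminoglycoside AMK or GM held at ¼ MIC. Strain S-3769, a MexY-overexpressing clinical isolate, was cultured in CAMHB at 10^4 to 5 CFU/well for 16–20 h; compound range 0–800 μM.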

[4] = Table 51, Test Example 1, 16 to 20 hours culture, OD595
[5] = Table 53, Test Example 3, same manner as Test Example 1

Compound | EC99, mexB (PA), AZT [1] | EC99, mexB (PA), LVFX [1] | EC75, mexY (EC) strain, EM [2, 4] | EC75, mexY (EC) strain, LVFX [2, 4] | other results
O=C(CN1CCN(CCc2ccccc2)CC1)N1CCN(Cc2c(O)cccc2Cl)CC1 [Example 229, Hydrochloride of 1-(4-(2-chloro-6-hydroxybenzyl)piperazin-1-yl)-2-(4-phenethylpiperazin-1-yl)ethan-1-one] | B (25 μM<EC99≤100 μM) | B (25 μM<EC99≤100 μM) | B (25 μM<EC75≤100 μM) | B (25 μM<EC75≤100 μM) | –
CCOc1cccc(F)c1CN1CCN(C(=O)[C@H](N)C2CCN(CCc3cc(Cl)ccc3-c3ccnn3C)CC2)CC1 [Example 503, Hydrobromide of (R)-2-amino-2-(1-(5-chloro-2-(1-methyl-1H-pyrazol-5-yl)phenethyl)piperidin-4-yl)-1-(4-(2-ethoxy-6-fluorobenzyl)piperazin-1-yl)ethan-1-one] | – | – | – | – | EC99, combinational effect with AZT, mexB (PA) [1]: C (100 μM<EC99); EC99, combinational effect with LVFX, mexB (PA) [1]: C (100 μM<EC99); EC99, combinational effect with TC, mexB (PA) [1]: C (100 μM<EC99); EC99, combinational effect with AMK, S-3769 strain [3]: B (25 μM<EC99≤100 μM); EC99, combinational effect with GM, S-3769 strain [3]: B (25 μM<EC99≤100 μM); EC75, mexY (EC) strain, EM [2, 5]: A (12.5 μM<EC75≤25 μM)
COc1ccccc1CN1CCN(C(=O)CN2CCN(CCc3cccc(Cl)c3)CC2)CC1 [Example 272, 2-(4-(3-chlorophenethyl)piperazin-1-yl)-1-(4-(2-methoxybenzyl)piperazin-1-yl)ethan-1-one] | S (EC99≤12.5 μM) | S (EC99≤12.5 μM) | B (25 μM<EC75≤100 μM) | B (25 μM<EC75≤100 μM) | –
COc1ccccc1CN1CCN(C(=O)CN2CCN(CCc3ccc(F)cc3)CC2)CC1 [Example 277, 2-(4-(4-Fluorophenethyl)piperazin-1-yl)-1-(4-(2-methoxybenzyl)piperazin-1-yl) ethan-1-one and hydrochloride thereof] | B (25 μM<EC99≤100 μM) | B (25 μM<EC99≤100 μM) | B (25 μM<EC75≤100 μM) | B (25 μM<EC75≤100 μM) | –
O=C(CN1CCN(CCc2ccccc2)CC1)N1CCN(Cc2cccc3ccccc23)CC1 [Example 238] | B (25 μM<EC99≤100 μM) | B (25 μM<EC99≤100 μM) | B (25 μM<EC75≤100 μM) | B (25 μM<EC75≤100 μM) | –
CSc1ccc(CN2CCN(C(=O)[C@H](N)C3CCN(CCc4cc(Cl)ccc4-c4ccccc4)CC3)CC2)s1 [Example 523, Hydrobromide of (R)-2-amino-2-(1-(2-(4-chloro-[1,1-biphenyl]-2-yl)ethyl)piperidin-4-yl)-1-(4-((5-(methylthio)thiophen-2-yl)methyl)piperazin-1-yl)ethan-1-one] | – | – | – | – | EC99, combinational effect with AZT, mexB (PA) [1]: B (25 μM<EC99≤100 μM); EC99, combinational effect with LVFX, mexB (PA) [1]: B (25 μM<EC99≤100 μM); EC99, combinational effect with TC, mexB (PA) [1]: B (25 μM<EC99≤100 μM); EC99, combinational effect with AMK, S-3769 strain [3]: B (25 μM<EC99≤100 μM); EC99, combinational effect with GM, S-3769 strain [3]: B (25 μM<EC99≤100 μM); EC75, mexY (EC) strain, LVFX [2, 5]: A (12.5 μM<EC75≤25 μM)
COc1ccccc1CN1CCN(C(=O)CN2CCC(/C=C/c3ccccc3)CC2)CC1 [Example 400, hydrochloride of (E)-1-(4-(2-methoxybenzyl)piperazin-1-yl)-2-(4-styrylpiperidin-1-yl)ethan-1-one] | A (12.5 μM<EC99≤25 μM) | S (EC99≤12.5 μM) | B (25 μM<EC75≤100 μM) | B (25 μM<EC75≤100 μM) | –
COc1ccccc1CN1CCN(C(=O)CN2CCC(C#Cc3ccccc3)CC2)CC1 [Example 405, Hydrochloride of 1-(4-(2-methoxybenzyl)piperazin-1-yl)-2-(4-(phenylethynyl)piperidin-1-yl)ethan-1-one] | B (25 μM<EC99≤100 μM) | A (12.5 μM<EC99≤25 μM) | B (25 μM<EC75≤100 μM) | B (25 μM<EC75≤100 μM) | –
CSc1ccccc1CN1CCN(C(=O)[C@H](N)C2CCN(CCc3cc(Cl)ccc3-c3ccccc3Cl)CC2)CC1 [Example 555, Hydrobromide of (R)-2-amino-2-(1-(2-(2′,4-dichloro-[1,1-biphenyl]-2-yl)ethyl)piperidin-4-yl)-1-(4-(2-(methylthio)benzyl)piperazin-1-yl)ethan-1-one] | – | – | – | – | EC99, combinational effect with AZT, mexB (PA) [1]: B (25 μM<EC99≤100 μM); EC99, combinational effect with LVFX, mexB (PA) [1]: B (25 μM<EC99≤100 μM); EC99, combinational effect with TC, mexB (PA) [1]: A (12.5 μM<EC99≤25 μM); EC99, combinational effect with AMK, S-3769 strain [3]: B (25 μM<EC99≤100 μM); EC99, combinational effect with GM, S-3769 strain [3]: B (25 μM<EC99≤100 μM); EC75, mexY (EC) strain, EM [2, 5]: A (12.5 μM<EC75≤25 μM); EC75, mexY (EC) strain, LVFX [2, 5]: A (12.5 μM<EC75≤25 μM)
COc1ccccc1CN1CCN(C(=O)CN2CCC(CCc3ccccc3)(COCc3ccccc3)CC2)CC1 [Example 403, Hydrochloride of 2-(4-((benzyloxy)methyl)-4-phenethylpiperidin-1-yl)-1-(4-(2-methoxybenzyl)piperazin-1-yl)ethan-1-one] | S (EC99≤12.5 μM) | S (EC99≤12.5 μM) | – | B (25 μM<EC75≤100 μM) | –
O=C(CN1CCN(CCc2ccccc2)CC1)N1CCN(CC2CCCCC2)CC1 [Example 210, Hydrochloride of 1-(4-(cyclohexylmethyl)piperazin-1-yl)-2-(4-phenethylpiperazin-1-yl)ethan-1-one] | – | – | B (25 μM<EC75≤100 μM) | – | –
COc1ccccc1CN1CCN(C(=O)CN2CCC(C(=O)Nc3ccccc3)CC2)CC1 [Example 408, Hydrochloride of 1-(2-(4-(2-methoxybenzyl)piperazin-1-yl)-2-oxoethyl)-N-phenylpiperidine-4-carboxamide] | – | – | B (25 μM<EC75≤100 μM) | B (25 μM<EC75≤100 μM) | –
COc1ccccc1CN1CCN(C(=O)CN2CCN(CCc3ccoc3)CC2)CC1 [Example 291, 2-(4-(2-(Furan-3-yl)ethyl)piperazin-1-yl)-1-(4-(2-methoxybenzyl)piperazin-1-yl)ethan-1-one and hydrochloride thereof] | – | – | B (25 μM<EC75≤100 μM) | – | –
